Experimental data: patent US20090306053A1, “Highly selective rho-kinase inhibitor” (priority 2005, published 2009)
Counter-ions that a name gives are not always drawn.

What was measured:
Type in all cases: biochemical
[1] = molecular target: T1, Recombinant human AuroraA (Homo sapiens, UniProt O14965); assay: AuroraA kinase assay (Kinase-Glo ATP consumption); set-up: key to Realative Inhibitory Activity AuroraA: ratio relative to ROCKII-inhibiting activity defined as 1.0 (from IC50s); settings: relative ratio to ROCKII (=1.0), based on IC50 values
T1 construct: purchased Upstate
T1 sequence (O14965 1-403): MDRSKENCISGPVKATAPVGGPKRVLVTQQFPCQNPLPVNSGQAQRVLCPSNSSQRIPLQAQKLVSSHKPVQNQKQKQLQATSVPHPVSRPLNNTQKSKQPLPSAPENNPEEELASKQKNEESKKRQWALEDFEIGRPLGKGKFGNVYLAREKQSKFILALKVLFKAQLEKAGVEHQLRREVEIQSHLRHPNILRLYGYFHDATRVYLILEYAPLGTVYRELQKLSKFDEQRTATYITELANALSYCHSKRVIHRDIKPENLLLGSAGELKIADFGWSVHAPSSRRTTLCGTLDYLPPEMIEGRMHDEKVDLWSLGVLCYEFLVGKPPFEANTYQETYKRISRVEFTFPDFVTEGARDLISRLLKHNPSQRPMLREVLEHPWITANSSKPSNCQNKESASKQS
Procedure: Recombinant human AuroraA (Upstate) was used to evaluate its activity to phosphorylate a substrate peptide (LRRASLG, Promega) was evaluated.
(§1) In a system of the total volume of 50 μL, the reaction of the above-mentioned enzyme (40 ng) was carried out at room temperature for 80 minutes in the presence of 40 mM of MOPS-NaOH (pH 7.5), 20 mM of magnesium chloride, 200 μM of the above peptide, and 1 μM of ATP. After the kinase reaction, the luminescence intensity corresponding to the amount of ATP in the reaction system was measured using a luciferase reagent (Kinase-Glo Luminescent Kinase Assay kit, Promega) with a chemiluminescence measurement apparatus (MicroLumat, Berthold Technologies). The amount of ATP consumed by the phosphorylation reaction was calculated by comparison with the luminescence intensity in the system when the kinase reaction was not carried out.
(§2) With this system, the kinase reaction was carried out in the presence of a compound at various concentrations, and the IC50 value of the compound was determined based on the resulting compound concentration-response curve for ATP consumption.
(§3) The ROCKII-inhibiting activity of a compound to be tested was defined as 1.0, and the inhibitory activities of the compound against kinases (PKA, PKG, CaMKII, and AuroraA) other than ROCKII were calculated as relative ratios to the ROCKII-inhibiting activity, based on the IC50 values calculated using the above-described evaluation system.

[2] = molecular target: T2, Purified bovine PKA (catalyst subunit) (Bos taurus, UniProt P00517); assay: PKA kinase assay (Kinase-Glo ATP consumption); settings: relative ratio to ROCKII (=1.0), based on IC50 values
T2 construct: Purified bovine PKA (catalyst subunit, Promega); purchased Promega
Procedure: Purified bovine PKA (catalyst subunit, Promega) was used to evaluate its activity to phosphorylate a substrate peptide (LRRASLG, Promega).
as §1, with “(43” for “(40”, “20” for “80”, “Tris-HCl” for “MOPS-NaOH”, “1 mg/mL of BSA, 5” for “200”
as §2, §3

Purified rat CaMKII = assay: CaMKII kinase assay (Kinase-Glo ATP consumption); settings: relative ratio to ROCKII (=1.0), based on IC50 values
Procedure: Purified rat CaMKII (containing CaMKIIα and small amounts of β, γ, and δ isoforms, Upstate) was used to evaluate its activity to phosphorylate a substrate peptide (KKALRRQETVDAL, Upstate).
as §1, with “(33” for “(40”, “60” for “80”, “50” for “40”, “Tris-HCl (pH7.5), 10” for “MOPS-NaOH (pH 7.5), 20”, “2 mM of calcium chloride, 0.04 mg/mL of BSA, 16 μg/mL of purified bovine brain calmodulin (Sigma), 0.5 mM of DTT, 50 µM” for “200 μM”
as §2, §3

ROCKII (Rho-kinase) = ROCKII (Rho-kinase) (Homo sapiens, UniProt O75116); assay: Rho-kinase (ROCKII) assay according to Patent Document 1; set-up: key to Realative Inhibitory Activity ROCKII: relative ratio; ROCKII-inhibiting activity defined as 1.0; settings: ROCKII-inhibiting activity defined as 1.0 (reference)
ROCKII (Rho-kinase), sequence (O75116 whole entry, species assumed): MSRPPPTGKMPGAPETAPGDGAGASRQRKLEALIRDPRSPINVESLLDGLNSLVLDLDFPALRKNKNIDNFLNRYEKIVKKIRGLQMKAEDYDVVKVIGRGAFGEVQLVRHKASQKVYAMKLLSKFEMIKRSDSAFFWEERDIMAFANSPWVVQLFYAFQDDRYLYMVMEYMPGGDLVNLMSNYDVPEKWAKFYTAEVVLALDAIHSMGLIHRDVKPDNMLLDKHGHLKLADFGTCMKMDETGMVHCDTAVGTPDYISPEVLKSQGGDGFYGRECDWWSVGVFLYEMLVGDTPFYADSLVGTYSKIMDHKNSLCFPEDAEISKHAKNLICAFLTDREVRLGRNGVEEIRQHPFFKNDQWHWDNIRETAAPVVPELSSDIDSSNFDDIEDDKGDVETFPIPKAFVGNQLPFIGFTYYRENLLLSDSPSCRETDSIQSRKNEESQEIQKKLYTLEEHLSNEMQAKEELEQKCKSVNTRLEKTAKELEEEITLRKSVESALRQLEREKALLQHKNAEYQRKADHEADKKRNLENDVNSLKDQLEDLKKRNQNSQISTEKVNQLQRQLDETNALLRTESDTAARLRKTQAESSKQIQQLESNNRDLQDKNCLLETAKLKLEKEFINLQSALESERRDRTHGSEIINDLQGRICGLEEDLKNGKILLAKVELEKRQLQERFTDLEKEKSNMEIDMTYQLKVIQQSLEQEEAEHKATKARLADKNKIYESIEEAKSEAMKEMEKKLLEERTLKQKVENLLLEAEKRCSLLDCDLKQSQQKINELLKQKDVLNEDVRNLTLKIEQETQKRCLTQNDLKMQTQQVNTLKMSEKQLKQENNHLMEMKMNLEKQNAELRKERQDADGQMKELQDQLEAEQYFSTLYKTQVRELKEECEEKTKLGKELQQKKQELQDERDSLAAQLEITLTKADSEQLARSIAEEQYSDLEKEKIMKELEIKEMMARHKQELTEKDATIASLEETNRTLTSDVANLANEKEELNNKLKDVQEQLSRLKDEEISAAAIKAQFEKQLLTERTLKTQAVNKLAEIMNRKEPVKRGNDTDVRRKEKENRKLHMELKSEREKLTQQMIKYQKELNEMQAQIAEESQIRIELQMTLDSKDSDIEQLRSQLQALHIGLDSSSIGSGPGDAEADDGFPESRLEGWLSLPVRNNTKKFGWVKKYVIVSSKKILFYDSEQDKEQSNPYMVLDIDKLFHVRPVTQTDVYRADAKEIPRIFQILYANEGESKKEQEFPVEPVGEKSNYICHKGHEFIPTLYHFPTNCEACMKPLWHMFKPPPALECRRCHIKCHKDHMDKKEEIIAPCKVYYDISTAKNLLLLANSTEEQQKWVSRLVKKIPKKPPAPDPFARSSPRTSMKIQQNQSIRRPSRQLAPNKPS
Procedure: An Rho-kinase assay was carried out according to the method described in Patent Document 1, and the concentration of a compound for inhibiting Rho-kinase activity by 50% (hereinafter referred to as “IC50 value”) was calculated.
as §3

Purified bovine PKGα = molecular target: T3, Purified bovine PKGα (Bos taurus, UniProt P00516); assay: PKG kinase assay (Kinase-Glo ATP consumption); settings: relative ratio to ROCKII (=1.0), based on IC50 values
T3 construct: Purified bovine PKGα (Promega); purchased Promega
T3 sequence (P00516 1-671): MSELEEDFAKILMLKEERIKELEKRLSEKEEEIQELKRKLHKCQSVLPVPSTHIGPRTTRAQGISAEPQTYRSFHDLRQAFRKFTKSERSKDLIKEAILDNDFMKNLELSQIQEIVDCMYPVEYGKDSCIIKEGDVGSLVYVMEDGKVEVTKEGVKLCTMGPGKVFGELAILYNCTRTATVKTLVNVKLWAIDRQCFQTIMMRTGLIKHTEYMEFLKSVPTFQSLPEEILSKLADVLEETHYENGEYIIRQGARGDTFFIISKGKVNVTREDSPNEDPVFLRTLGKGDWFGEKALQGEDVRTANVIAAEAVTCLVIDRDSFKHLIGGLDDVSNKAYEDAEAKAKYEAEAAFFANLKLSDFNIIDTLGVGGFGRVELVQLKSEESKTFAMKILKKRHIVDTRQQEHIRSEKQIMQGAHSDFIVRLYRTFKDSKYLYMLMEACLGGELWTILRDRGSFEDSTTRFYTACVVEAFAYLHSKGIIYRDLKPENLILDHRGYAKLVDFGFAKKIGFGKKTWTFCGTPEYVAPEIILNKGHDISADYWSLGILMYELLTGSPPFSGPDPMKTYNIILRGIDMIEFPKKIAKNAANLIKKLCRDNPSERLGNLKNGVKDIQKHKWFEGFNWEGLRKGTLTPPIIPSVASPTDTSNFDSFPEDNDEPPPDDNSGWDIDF
Procedure: Purified bovine PKGα (Promega) was used to evaluate its activity to phosphorylate a substrate peptide (RKISASEF, Promega).
as §1, with “(64” for “(40”, “Tris-HCl” for “MOPS-NaOH”, “10 μM of cGMP (Sigma), 100” for “200”
as §2, §3

Realative Inhibitory Activity AuroraA [1]	Realative Inhibitory Activity PKA [2]	Realative Inhibitory Activity CaMKII (Purified rat CaMKII)	Realative Inhibitory Activity ROCKII (ROCKII (Rho-kinase))	Realative Inhibitory Activity PKG (Purified bovine PKGα)	Molecule
145	>300	135	1	11	C[C@H](N)C(=O)N1CCCN(S(O)(O)c2cccc3cncc(F)c23)[C@@H](C)C1 [Example 3, 2-(S)-4-(L-alanyl)-1-(4-fluoroisoquinoline-5-sulfonyl)-2-methylhomopiperazine dihydrochloride]
>300	>300	300	1	93	2-(S)-4-(D-alanyl)-1-(4-fluoroisoquinoline-5-sulfonyl)-2-methylhomopiperazine dihydrochloride [Example 4]
244	>300	>300	1	92	CC[C@@H](N)C(=O)N1CCCN(S(O)(O)c2cccc3cncc(F)c23)[C@@H](C)C1 [Example 12, 2-(S)-4-(D-α-aminobutylyl)-1-(4-fluoroisoquinoline-5-sulfonyl)-2-methylhomopiperazine dihydrochloride]
210	>300	364	1	79	CC[C@H](N)C(=O)N1CCCN(S(O)(O)c2cccc3cncc(F)c23)[C@@H](C)C1 [Example 11, 2-(S)-4-(L-α-aminobutylyl)-1-(4-fluoroisoquinoline-5-sulfonyl)-2-methylhomopiperazine dihydrochloride]
>300	>300	>300	1	30	CC(C)[C@@H](N)C(=O)N1CCCN(S(O)(O)c2cccc3cncc(F)c23)[C@@H](C)C1 [Example 6, 2-(S)-1-(4-fluoroisoquinoline-5-sulfonyl)-2-methyl-4-(D-valyl)homopiperazine dihydrochloride]
